These results are taken from ChEMBL document CHEMBL5465560, “Selectivity Literature for EUbOPEN Chemogenomic Library” (2024).

The structures appear in SMILES notation.

The target of test [1] is Mitogen-activated protein kinase 9 (Homo sapiens, UniProt P45984). Put plainly: Selectivity interaction (SelectScreen profiling (Invitrogen)) EUB0000607a MAPK9. The following applies: at 2 µM.
Test [2] has as its target T1, NUAK family SNF1-like kinase 1 (Homo sapiens) (UniProt O60285).
T1 sequence (whole entry): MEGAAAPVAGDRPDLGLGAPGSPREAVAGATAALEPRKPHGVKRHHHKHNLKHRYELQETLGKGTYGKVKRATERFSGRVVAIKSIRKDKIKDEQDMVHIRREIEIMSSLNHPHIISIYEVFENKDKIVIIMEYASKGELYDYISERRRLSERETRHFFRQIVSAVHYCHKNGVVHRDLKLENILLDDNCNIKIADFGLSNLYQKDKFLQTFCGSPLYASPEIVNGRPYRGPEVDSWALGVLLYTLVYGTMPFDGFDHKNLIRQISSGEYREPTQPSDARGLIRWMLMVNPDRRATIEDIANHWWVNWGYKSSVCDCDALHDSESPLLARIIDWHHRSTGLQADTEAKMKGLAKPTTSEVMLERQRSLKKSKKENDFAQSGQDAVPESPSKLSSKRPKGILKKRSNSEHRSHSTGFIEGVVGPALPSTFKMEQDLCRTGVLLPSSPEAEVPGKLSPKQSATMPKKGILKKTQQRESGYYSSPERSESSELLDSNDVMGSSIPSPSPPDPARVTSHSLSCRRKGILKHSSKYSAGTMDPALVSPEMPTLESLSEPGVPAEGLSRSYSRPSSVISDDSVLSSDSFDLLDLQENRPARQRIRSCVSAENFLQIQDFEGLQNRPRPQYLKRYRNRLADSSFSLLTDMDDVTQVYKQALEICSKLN
The experiment in a line: Selectivity interaction (KinomeScan (DiscoverX)) EUB0000607a NUAK1. Particulars: at 10 µM.

The subject of test [3] is Epidermal growth factor receptor (Homo sapiens), P00533 [L861Q]. The following applies: at 10 µM.
Test [4] has as its system Epidermal growth factor receptor (Homo sapiens), P00533 [T790M]. Particulars: at 10 µM.
Test [5] deals with Atypical kinase COQ8A, mitochondrial (Homo sapiens, UniProt Q8NI60). Put plainly: Selectivity interaction (KinomeScan (DiscoverX)) EUB0000666a ADCK3. Particulars: at 10 µM.
Test [6] has as its target T2, Cyclin-G-associated kinase (Homo sapiens) (UniProt O14976).
T2 sequence (whole entry): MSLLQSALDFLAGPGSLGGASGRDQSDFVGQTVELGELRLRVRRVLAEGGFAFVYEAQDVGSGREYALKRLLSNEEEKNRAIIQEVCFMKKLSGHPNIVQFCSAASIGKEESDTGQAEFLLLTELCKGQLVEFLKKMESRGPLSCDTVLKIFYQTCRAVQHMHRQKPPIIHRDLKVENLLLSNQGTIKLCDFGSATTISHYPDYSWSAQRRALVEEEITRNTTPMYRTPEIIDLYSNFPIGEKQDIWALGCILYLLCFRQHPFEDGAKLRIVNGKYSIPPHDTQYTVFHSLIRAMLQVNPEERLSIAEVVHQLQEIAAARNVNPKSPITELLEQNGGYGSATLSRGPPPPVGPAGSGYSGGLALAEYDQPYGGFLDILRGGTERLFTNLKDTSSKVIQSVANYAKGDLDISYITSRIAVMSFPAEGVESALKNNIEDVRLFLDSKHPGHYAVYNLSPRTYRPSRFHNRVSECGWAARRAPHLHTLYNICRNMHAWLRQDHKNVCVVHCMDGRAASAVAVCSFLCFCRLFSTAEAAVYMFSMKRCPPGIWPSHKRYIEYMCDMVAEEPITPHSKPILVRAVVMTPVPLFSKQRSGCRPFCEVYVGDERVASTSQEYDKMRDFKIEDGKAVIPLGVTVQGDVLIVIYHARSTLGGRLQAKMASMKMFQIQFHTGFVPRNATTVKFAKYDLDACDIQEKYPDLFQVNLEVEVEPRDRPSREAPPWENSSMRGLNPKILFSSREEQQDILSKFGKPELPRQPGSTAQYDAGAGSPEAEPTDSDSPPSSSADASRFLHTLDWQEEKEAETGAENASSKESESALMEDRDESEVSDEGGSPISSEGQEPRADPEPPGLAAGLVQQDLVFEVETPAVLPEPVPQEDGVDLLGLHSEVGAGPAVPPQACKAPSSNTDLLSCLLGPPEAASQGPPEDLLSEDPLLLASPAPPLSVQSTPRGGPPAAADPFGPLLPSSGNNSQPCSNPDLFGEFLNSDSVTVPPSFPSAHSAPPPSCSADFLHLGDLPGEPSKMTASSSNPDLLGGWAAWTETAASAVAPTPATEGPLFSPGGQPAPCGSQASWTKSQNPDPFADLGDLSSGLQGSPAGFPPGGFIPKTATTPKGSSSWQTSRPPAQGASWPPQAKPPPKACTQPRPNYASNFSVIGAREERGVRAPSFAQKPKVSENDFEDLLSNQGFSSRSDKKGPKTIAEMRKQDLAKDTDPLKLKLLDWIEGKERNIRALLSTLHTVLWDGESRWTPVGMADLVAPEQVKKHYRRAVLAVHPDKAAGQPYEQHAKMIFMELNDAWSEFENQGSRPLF
The experiment in a line: Selectivity interaction (KinomeScan (DiscoverX)) EUB0000666a GAK. Particulars: at 10 µM.

Test [7] deals with Dual specificity mitogen-activated protein kinase kinase 1 (Homo sapiens, UniProt Q02750). Put plainly: Selectivity interaction (Kinase panel (DSF assay)) EUB0001558a MAP2K1. A general note: DSF heats the sample and reads unfolding from a dye or from intrinsic fluorescence.
The target in test [8] is Cyclin-dependent kinase 4 (Homo sapiens, UniProt P11802). The experiment in a line: Selectivity interaction (KinomeScan (DiscoverX)) EUB0000229b CDK4. The following applies: at 10 µM.
The target of test [9] is Casein kinase I isoform alpha (Homo sapiens, UniProt P48729). Put plainly: Selectivity interaction (KinomeScan (DiscoverX)) EUB0000229b CSNK1A1. The following applies: at 10 µM.
Test [10] concerns the target Phosphatidylinositol 4-kinase beta (Homo sapiens, UniProt Q9UBF8). Put plainly: Selectivity interaction (KinomeScan (DiscoverX)) EUB0001079a PI4KB. Particulars: at 1 µM.
Test [11] addresses Calcium/calmodulin-dependent protein kinase type 1D (Homo sapiens) (UniProt Q8IU85). The experiment in a line: Selectivity interaction (ActivX KiNativ screen (kinase selectivity in THP-1 cell lysates)) EUB0000639a CAMK1D. In kind it is subcellular. The following applies: lysate, at 1 µM.
The target in test [12] is Cyclin-dependent kinase 2 (Homo sapiens, UniProt P24941). The experiment in a line: Selectivity interaction (ActivX KiNativ screen (kinase selectivity in THP-1 cell lysates)) EUB0000639a CDK2. The format is subcellular. The following applies: lysate, at 0.2 µM.
Test [13] has as its target Serine/threonine-protein kinase Nek6 (Homo sapiens) (UniProt Q9HC98). Put plainly: Selectivity interaction (KinomeScan (DiscoverX)) EUB0000092b NEK6. Particulars: at 10 µM.
In test [14] the target is Mitogen-activated protein kinase kinase kinase kinase 5 (Homo sapiens) (UniProt Q9Y4K4). The experiment in a line: Selectivity interaction (KinomeScan (DiscoverX)) EUB0001550a MAP4K5. The following applies: at 1 µM.

Sequence of Mitogen-activated protein kinase 9 (P45984 whole entry, looked up): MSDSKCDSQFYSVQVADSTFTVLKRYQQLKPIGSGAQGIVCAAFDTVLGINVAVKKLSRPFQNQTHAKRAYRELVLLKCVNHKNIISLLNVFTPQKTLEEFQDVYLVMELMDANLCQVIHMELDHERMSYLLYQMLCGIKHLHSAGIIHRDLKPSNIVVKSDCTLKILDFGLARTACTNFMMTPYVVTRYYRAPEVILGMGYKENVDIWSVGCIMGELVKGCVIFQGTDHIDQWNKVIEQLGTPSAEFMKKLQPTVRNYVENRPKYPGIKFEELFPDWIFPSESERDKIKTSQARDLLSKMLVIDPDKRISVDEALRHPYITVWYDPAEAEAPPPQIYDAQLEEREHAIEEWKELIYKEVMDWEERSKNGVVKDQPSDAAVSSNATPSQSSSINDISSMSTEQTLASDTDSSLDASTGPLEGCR
Sequence of Serine/threonine-protein kinase Nek6 (Homo sapiens) (Q9HC98 whole entry): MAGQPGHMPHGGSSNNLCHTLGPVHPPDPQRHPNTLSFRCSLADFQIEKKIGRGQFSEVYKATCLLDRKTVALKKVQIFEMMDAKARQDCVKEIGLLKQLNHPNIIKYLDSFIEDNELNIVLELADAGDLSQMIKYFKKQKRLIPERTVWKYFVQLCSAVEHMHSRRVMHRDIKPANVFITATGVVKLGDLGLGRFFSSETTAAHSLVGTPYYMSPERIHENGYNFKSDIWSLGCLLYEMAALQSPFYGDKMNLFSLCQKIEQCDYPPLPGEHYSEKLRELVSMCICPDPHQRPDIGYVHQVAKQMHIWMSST
Sequence of Epidermal growth factor receptor (Homo sapiens), P00533 [L861Q] (P00533 whole entry L861Q): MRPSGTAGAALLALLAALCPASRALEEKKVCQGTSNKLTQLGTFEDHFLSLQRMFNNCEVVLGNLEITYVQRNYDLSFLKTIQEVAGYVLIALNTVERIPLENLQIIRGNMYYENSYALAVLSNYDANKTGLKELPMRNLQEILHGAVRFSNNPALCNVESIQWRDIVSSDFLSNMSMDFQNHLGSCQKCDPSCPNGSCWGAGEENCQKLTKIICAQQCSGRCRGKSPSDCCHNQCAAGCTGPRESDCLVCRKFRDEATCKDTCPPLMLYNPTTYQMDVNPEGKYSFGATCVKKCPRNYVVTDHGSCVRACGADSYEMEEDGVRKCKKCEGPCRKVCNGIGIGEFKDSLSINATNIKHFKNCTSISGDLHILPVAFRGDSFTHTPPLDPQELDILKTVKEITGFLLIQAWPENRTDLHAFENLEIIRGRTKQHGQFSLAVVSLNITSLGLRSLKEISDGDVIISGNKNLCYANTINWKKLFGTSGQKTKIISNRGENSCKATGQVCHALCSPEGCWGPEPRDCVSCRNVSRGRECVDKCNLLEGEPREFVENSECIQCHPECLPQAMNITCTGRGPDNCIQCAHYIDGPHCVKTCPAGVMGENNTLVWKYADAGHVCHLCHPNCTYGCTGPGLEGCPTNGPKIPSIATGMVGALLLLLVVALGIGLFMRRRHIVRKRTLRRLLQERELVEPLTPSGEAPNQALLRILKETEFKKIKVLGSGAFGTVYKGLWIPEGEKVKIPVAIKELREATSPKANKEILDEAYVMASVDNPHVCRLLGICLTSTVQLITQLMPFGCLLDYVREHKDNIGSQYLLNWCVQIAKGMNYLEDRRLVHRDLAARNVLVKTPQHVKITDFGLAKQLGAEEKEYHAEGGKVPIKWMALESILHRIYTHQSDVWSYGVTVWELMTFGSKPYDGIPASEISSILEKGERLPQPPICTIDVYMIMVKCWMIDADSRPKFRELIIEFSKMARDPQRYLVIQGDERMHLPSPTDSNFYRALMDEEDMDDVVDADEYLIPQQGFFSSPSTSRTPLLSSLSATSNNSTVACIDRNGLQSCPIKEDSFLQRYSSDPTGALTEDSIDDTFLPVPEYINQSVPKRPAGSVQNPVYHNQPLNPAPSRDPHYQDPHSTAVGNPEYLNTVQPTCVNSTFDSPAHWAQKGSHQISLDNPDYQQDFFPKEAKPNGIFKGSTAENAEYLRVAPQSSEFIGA
Sequence of Atypical kinase COQ8A, mitochondrial (Q8NI60 163-647 limits assumed): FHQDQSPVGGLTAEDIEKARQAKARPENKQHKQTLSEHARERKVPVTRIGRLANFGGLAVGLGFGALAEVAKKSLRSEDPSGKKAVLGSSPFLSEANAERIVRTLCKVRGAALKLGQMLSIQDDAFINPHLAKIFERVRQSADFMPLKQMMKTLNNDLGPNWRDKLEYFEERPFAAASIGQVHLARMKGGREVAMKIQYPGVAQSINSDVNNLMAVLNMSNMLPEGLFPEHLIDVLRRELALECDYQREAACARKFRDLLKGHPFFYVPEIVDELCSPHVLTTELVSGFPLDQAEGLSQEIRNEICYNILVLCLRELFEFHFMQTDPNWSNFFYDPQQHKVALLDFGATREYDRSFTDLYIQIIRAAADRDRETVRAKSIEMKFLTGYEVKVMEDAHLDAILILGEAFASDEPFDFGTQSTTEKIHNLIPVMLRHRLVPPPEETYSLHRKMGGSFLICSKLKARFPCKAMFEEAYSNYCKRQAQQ
Sequence of Dual specificity mitogen-activated protein kinase kinase 1 (Q02750 whole entry): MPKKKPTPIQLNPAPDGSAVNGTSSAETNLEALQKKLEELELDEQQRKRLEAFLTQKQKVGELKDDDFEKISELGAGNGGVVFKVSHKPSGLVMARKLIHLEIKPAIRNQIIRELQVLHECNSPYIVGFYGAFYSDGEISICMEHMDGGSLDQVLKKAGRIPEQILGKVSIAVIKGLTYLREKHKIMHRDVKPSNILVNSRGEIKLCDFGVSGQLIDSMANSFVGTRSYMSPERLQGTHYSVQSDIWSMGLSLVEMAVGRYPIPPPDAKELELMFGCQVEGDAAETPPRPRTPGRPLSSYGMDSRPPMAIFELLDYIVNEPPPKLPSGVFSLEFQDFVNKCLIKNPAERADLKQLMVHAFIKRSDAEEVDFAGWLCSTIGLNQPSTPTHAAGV
Sequence of Cyclin-dependent kinase 4 (P11802 whole entry, canonical isoform): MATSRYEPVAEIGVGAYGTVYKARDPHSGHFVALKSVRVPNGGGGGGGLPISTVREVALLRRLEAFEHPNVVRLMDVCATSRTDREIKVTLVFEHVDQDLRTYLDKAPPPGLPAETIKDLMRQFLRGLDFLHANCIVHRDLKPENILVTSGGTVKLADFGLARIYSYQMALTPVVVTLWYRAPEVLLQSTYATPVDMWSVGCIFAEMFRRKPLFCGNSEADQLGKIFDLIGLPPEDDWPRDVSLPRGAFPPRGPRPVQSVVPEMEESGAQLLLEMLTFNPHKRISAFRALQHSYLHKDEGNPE
Sequence of Calcium/calmodulin-dependent protein kinase type 1D (Homo sapiens) (Q8IU85 whole entry, looked up): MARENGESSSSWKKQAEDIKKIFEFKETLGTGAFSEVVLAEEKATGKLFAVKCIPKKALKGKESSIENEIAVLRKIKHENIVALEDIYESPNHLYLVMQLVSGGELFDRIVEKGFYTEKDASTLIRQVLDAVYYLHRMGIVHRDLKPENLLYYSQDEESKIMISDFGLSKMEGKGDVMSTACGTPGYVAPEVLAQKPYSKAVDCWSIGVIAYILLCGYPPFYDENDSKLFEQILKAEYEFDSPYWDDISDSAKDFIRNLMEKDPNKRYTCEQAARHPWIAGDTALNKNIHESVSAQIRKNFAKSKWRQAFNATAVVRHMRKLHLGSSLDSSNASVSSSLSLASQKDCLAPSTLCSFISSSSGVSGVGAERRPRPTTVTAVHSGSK
Sequence of Casein kinase I isoform alpha (P48729 2-337 limits assumed): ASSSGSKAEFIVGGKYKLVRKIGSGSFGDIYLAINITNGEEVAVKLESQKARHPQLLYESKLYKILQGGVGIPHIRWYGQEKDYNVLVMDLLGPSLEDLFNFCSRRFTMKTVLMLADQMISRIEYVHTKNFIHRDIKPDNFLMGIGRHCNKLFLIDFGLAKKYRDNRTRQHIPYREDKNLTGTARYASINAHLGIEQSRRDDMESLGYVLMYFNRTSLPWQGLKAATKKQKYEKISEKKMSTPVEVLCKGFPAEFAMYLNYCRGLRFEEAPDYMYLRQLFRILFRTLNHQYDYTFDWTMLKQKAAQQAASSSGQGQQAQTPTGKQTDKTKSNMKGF
Sequence of Phosphatidylinositol 4-kinase beta (Q9UBF8 2-816 limits assumed): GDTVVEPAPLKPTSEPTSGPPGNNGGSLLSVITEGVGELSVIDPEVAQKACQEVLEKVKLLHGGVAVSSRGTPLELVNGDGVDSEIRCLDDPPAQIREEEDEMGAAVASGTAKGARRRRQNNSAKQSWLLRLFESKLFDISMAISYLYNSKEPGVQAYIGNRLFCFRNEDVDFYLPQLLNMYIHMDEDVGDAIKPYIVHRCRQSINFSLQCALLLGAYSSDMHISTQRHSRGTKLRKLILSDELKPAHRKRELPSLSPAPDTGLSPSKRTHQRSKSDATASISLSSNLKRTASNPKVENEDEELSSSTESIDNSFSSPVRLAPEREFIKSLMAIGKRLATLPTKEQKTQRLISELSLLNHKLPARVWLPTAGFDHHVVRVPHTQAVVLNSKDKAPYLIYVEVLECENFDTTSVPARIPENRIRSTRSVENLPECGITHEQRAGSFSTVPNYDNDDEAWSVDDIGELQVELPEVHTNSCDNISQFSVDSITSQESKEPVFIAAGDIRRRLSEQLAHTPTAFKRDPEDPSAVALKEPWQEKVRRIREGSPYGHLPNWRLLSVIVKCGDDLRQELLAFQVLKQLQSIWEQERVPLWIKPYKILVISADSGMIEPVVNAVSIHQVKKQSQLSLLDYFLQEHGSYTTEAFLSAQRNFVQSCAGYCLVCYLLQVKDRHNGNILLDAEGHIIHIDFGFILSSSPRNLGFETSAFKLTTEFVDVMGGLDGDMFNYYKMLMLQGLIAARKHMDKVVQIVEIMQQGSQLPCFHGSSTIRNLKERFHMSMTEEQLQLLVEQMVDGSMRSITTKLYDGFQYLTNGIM

In the case of `CNC(=O)Nc1ccc(-c2nc(N3CC4CCC(C3)O4)c3cnn(C4CCC5(CC4)OCCO5)c3n2)cc1`, in test [1], the % of inhibition amounted to 11%. In test [2], the % of control was determined as 82%.

As to `Cc1cc([C@@H](C)Nc2ccccc2C(=O)O)c2nc(N3CCOCC3)cc(=O)n2c1` [AZD-6482], the % of control in test [3] and in [4] was 100% throughout.

Regarding `O=C(NOC[C@H](O)CO)c1ccc(F)c(F)c1Nc1ccc(I)cc1F`, the % of control is 86% in [5] and 71% in test [6].

`CC(C)(O)[C@H](F)CN1Cc2cc(NC(=O)c3cnn4cccnc34)c(N3CCOCC3)cc2C1=O` showed a dTM in test [7] of 1.3 K.

On to `COc1cc(N(C)c2ccnc3ccc(C(F)(F)F)cc23)cc(OC)c1OC`, for which the % binding in test [8] came out at 100%; in test [9], 90%.

`Nc1cnc(N2CCc3cc(S(=O)(=O)Nc4c(F)cc(Cl)cc4F)cc(N4CCCC4=O)c32)nc1` [TP-020n]: the % of control in test [10] came out at 93%.

As to `CC[C@@H]1[C@H](F)C(=O)N[C@@H]1COc1nccc2cc(C(N)=O)c(OC)cc12` [ZIMLOVISERTIB], the % of inhibition in [11] is -1.2%; in test [12], -1%.

Regarding `CCC(=O)N1CCN(c2ccc(-n3c(=O)ccc4cnc5ccc(-c6cnc7ccccc7c6)cc5c43)cc2C(F)(F)F)CC1`, the % of control in test [13] was determined as 99%.

Take `CN(C)CC#Cc1ccc2[nH]c3c(c2c1)-c1nc(N)ncc1CCC3`: the % of control in test [14] stood at 96%.
